{"source": "patent US4833257A", "about": "“Compositions of matter and methods of using same” (Arizona Board of Regents, priority 1986, dated 1989)", "key": {"[1]": {"tested_on": "P388 lymphocytic leukemia (PS cell line)", "experiment": "P388 lymphocytic leukemia (PS) cell line growth inhibition", "format": "cell-based, murine", "conditions": "Mus musculus", "text": "(§1) The isolation and purification methods chosen can be monitored at each step by performing in-vitro and/or in-vivo antitumor tests as described by R. I. Geran, N. H. Greenberg, M. M. MacDonald, A. M. Schumacher and B. S. Abbot in Cancer Chemother. Rep. Part 3, Vol 3: 1-103 (1972); and by Schmidt, J. M.; Pettit, G. R. in Experientia 1978, 34: 659-660. Such tests include the determination of the concentration of active material required to inhibit the growth of tumor cells in culture, (e.g. the concentration required to inhibit growth by 50 percent or the E.D.50) and of the dose of active material required to prolong the life of mice bearing transplanted tumors. The chemical structures of the bryostatins of the present invention are shown below and the physical characteristics are reported in the pertinent examples. The structures are: [drawing 2]"}, "[2]": {"tested_on": "P388 lymphocytic leukemia (PS system)", "experiment": "in vivo antitumor test in mice bearing P388 lymphocytic leukemia (PS system), life extension / T/C", "text": "as §1"}, "[3]": {"tested_on": "P388 lymphocytic leukemia and other NCI test systems", "experiment": "cell growth inhibitory and antineoplastic activity against P388 lymphocytic leukemia and other NCI test systems", "set-up": "species or system murine", "text": "as §1"}, "[4]": {"conditions": "P388 lymphocytic leukemia cell line, read-out: PS cell line growth inhibition ED50"}}, "note": "Where two headings read alike, the source gives them in different places."}
{"smiles": "CCCC(=O)O[C@H]1/C(=C/C(=O)OC)C[C@H]2C[C@H]([C@@H](C)O)OC(=O)C[C@H](O)C[C@@H]3C[C@H](OC(C)=O)C(C)(C)[C@](O)(C[C@@H]4C/C(=C/C(=O)OC)C[C@H](/C=C/C(C)(C)[C@]1(O)O2)O4)O3", "note": "[Bryostatin 9]", "values": [{"measurement": "IC50", "setting": "[1]; P388 lymphocytic leukemia, growth inhibition, read-out: PS ED50", "result": 1.2, "unit": "ng/mL"}, {"measurement": "life extension", "setting": "[2]; at 80 μg/kg", "result": 40, "unit": "%"}, {"measurement": "cell growth inhibitory and antineoplastic activity", "setting": "[3]", "result": "substantial cell growth inhibitory and antineoplastic activity"}]}
{"smiles": "COC(=O)/C=C1/C[C@H]2C[C@]3(O)O[C@H](C[C@@H](O)CC(=O)O[C@@H]([C@@H](C)O)C[C@@H]4C/C(=C\\C(=O)OC)C[C@@](O)(O4)C(C)(C)/C=C/[C@@H](C1)O2)C[C@H](OC(C)=O)C3(C)C", "note": "[Bryostatin 11]", "values": [{"measurement": "IC50", "setting": "[1]; [4]", "result": 0.018, "unit": "ng/mL"}, {"measurement": "in vivo growth inhibition", "setting": "[2]; at 92.5 μg/kg", "result": 64, "unit": "%"}, {"measurement": "cell growth inhibitory and antineoplastic activity", "setting": "[3]", "result": "substantial cell growth inhibitory and antineoplastic activity"}]}
{"smiles": "CCC/C=C/C=C/C(=O)O[C@H]1/C(=C/C(=O)OC)C[C@H]2C[C@H]([C@@H](C)O)OC(=O)C[C@H](O)C[C@@H]3C[C@H](OC(=O)CCC)C(C)(C)[C@](O)(C[C@@H]4C/C(=C/C(=O)OC)C[C@H](/C=C/C(C)(C)[C@]1(O)O2)O4)O3", "note": "[Bryostatin 12]", "values": [{"measurement": "IC50", "setting": "[1]; [4]", "result": 14, "unit": "ng/mL"}, {"measurement": "life extension", "setting": "[2]; at 30-50 μg/kg", "result": "47-68%"}, {"measurement": "cell growth inhibitory and antineoplastic activity", "setting": "[3]", "result": "substantial cell growth inhibitory and antineoplastic activity"}]}
{"smiles": "CCCC(=O)O[C@H]1C[C@H]2C[C@@H](O)CC(=O)O[C@@H]([C@@H](C)O)C[C@@H]3C/C(=C\\C(=O)OC)C[C@@](O)(O3)C(C)(C)/C=C/[C@H]3C/C(=C\\C(=O)OC)C[C@@H](C[C@](O)(O2)C1(C)C)O3", "note": "[Bryostatin 13]", "values": [{"measurement": "IC50", "setting": "[1]; [4]", "result": 5.4, "unit": "ng/mL"}, {"measurement": "cell growth inhibitory and antineoplastic activity", "setting": "[3]", "result": "substantial cell growth inhibitory and antineoplastic activity"}]}
